Test: mn = molality of the nth substance listed, in mol/kg
Details: 298.15 K, 101 kPa, Liquid; for viscosity: Capillary tube (Ostwald / Ubbelohde) method; for speed of sound: Sing-around technique in a fixed-path interferometer; for mass density: Vibrating tube method

CCCCn1cc[n+](C)c1.[Cl-] [1-butyl-3-methylimidazolium chloride] + O
Details	mass density [kg/m3]	speed of sound [m/s]	viscosity [mPa·s]
m1 = 0.0123	997.21	1498.3	–
m1 = 0.01554	–	–	0.8981
m1 = 0.01952	–	–	0.9005
m1 = 0.02	997.31	1499.3	–
m1 = 0.0252	–	–	0.9024
m1 = 0.0279	997.41	1500.3	–
m1 = 0.0349	997.5	1501.2	–
m1 = 0.03495	–	–	0.9062
m1 = 0.0404	997.57	1501.9	–
m1 = 0.04454	–	–	0.9101
m1 = 0.05402	–	–	0.9143
m1 = 0.0624	997.85	1504.8	–
m1 = 0.06772	–	–	0.9197
m1 = 0.08128	–	–	0.9258
m1 = 0.09508	–	–	0.9323
m1 = 0.107	998.41	1510.6	–
m1 = 0.1132	–	–	0.9412
m1 = 0.1175	998.54	1512	–
m1 = 0.1296	998.69	1513.5	–
m1 = 0.1521	998.97	1516.5	–
m1 = 0.1677	999.16	1518.6	–
m1 = 0.1852	999.38	1520.9	–
m1 = 0.2113	999.7	1524.3	–
m1 = 0.236	1000.01	1527.6	–
m1 = 0.2591	1000.29	1530.7	–
m1 = 0.2718	1000.45	1532.4	–

CCCCn1cc[n+](C)c1.COS(=O)(=O)[O-] [1-butyl-3-methylimidazolium methyl sulfate] + O
Details	mass density [kg/m3]	speed of sound [m/s]	viscosity [mPa·s]
m1 = 0.00791	–	–	0.8954
m1 = 0.0096	997.41	1498	–
m1 = 0.01626	–	–	0.8999
m1 = 0.02449	–	–	0.9046
m1 = 0.0289	998.13	1500.5	–
m1 = 0.0329	–	–	0.9095
m1 = 0.0411	998.59	1502	–
m1 = 0.04142	–	–	0.9133
m1 = 0.0522	–	–	0.9182
m1 = 0.0584	999.23	1504.2	–
m1 = 0.06083	–	–	0.9236
m1 = 0.07206	–	–	0.9287
m1 = 0.0828	1000.11	1507.2	–
m1 = 0.08297	–	–	0.9354
m1 = 0.09627	–	–	0.9428
m1 = 0.1188	1001.49	1512	–
m1 = 0.1481	1002.58	1515.7	–
m1 = 0.1736	1003.51	1519	–
m1 = 0.2021	1004.58	1522.6	–
m1 = 0.2252	1005.44	1525.6	–

CCCCCCCCOS(=O)(=O)[O-].CCCCn1cc[n+](C)c1 [1-butyl-3-methylimidazolium octyl sulfate] + O
Details	mass density [kg/m3]	speed of sound [m/s]	viscosity [mPa·s]
m1 = 0.008	997.23	1498.5	–
m1 = 0.00921	–	–	0.9054
m1 = 0.0148	997.38	1500.1	–
m1 = 0.01899	–	–	0.9173
m1 = 0.0215	997.53	1501.6	–
m1 = 0.02803	–	–	0.9278
m1 = 0.0301	997.72	1503.6	–
m1 = 0.035	997.83	1504.7	–
m1 = 0.03646	–	–	0.9388
m1 = 0.0423	997.99	1506.2	–
m1 = 0.04596	–	–	0.9507
m1 = 0.0492	998.14	1506.9	–
m1 = 0.05551	–	–	0.9615
m1 = 0.06482	–	–	0.9748
m1 = 0.0668	998.52	1507.5	–
m1 = 0.07522	–	–	0.9873
m1 = 0.08499	–	–	0.9986
m1 = 0.0888	998.99	1508.1	–
m1 = 0.0981	–	–	1.015
m1 = 0.1542	1000.35	1509.5	–
m1 = 0.2466	1002.19	1511.6	–
m1 = 0.3369	1003.92	1513.9	–

CCCCn1cc[n+](C)c1.F[B-](F)(F)F [1-butyl-3-methylimidazolium tetrafluoroborate] + O
Details	mass density [kg/m3]	speed of sound [m/s]	viscosity [mPa·s]
m1 = 0.00382	–	–	0.8922
m1 = 0.01067	–	–	0.8943
m1 = 0.0151	997.61	1497.7	–
m1 = 0.02196	–	–	0.8986
m1 = 0.03489	–	–	0.9024
m1 = 0.0355	998.36	1499.1	–
m1 = 0.04696	–	–	0.9053
m1 = 0.05635	–	–	0.9095
m1 = 0.0662	–	–	0.9133
m1 = 0.07543	–	–	0.9162
m1 = 0.0764	999.85	1502	–
m1 = 0.08767	–	–	0.9198
m1 = 0.09802	–	–	0.9239
m1 = 0.1052	1000.89	1504	–
m1 = 0.1284	1001.72	1505.5	–
m1 = 0.1538	1002.64	1507.3	–
m1 = 0.1803	1003.58	1509.1	–
m1 = 0.2059	1004.49	1510.9	–
m1 = 0.2269	1005.22	1512.3	–
m1 = 0.2505	1006.06	1513.9	–

CCCCCCCC[n+]1ccn(C)c1.[Cl-] [1-methyl-3-octylimidazolium chloride] + O
Details	mass density [kg/m3]	speed of sound [m/s]	viscosity [mPa·s]
m1 = 0.0074	–	–	0.8986
m1 = 0.0127	997.14	1499.2	–
m1 = 0.01484	–	–	0.9052
m1 = 0.017	997.17	1500	–
m1 = 0.02425	–	–	0.9131
m1 = 0.0272	997.24	1502	–
m1 = 0.039	997.32	1504.4	–
m1 = 0.04255	–	–	0.9281
m1 = 0.0555	997.43	1507.5	–
m1 = 0.05607	–	–	0.9387
m1 = 0.06607	–	–	0.946
m1 = 0.0693	997.52	1510.1	–
m1 = 0.07893	–	–	0.956
m1 = 0.0892	997.65	1513.8	–
m1 = 0.0928	–	–	0.968
m1 = 0.1002	997.72	1515.7	–
m1 = 0.1061	–	–	0.9779
m1 = 0.1179	997.83	1518.5	–
m1 = 0.1353	997.94	1521.5	–
m1 = 0.1679	998.14	1526.8	–
m1 = 0.183	998.23	1529.5	–
m1 = 0.1948	998.3	1531.3	–

CCCCCCCC[n+]1ccn(C)c1.F[B-](F)(F)F [1-methyl-3-octylimidazolium tetrafluoroborate] + O
Details	mass density [kg/m3]	speed of sound [m/s]	viscosity [mPa·s]
m1 = 0.00225	–	–	0.8929
m1 = 0.0045	997.19	1497.4	–
m1 = 0.0058	997.23	1497.5	–
m1 = 0.0077	997.29	1497.8	–
m1 = 0.00773	–	–	0.8974
m1 = 0.01093	–	–	0.8997
m1 = 0.0112	997.4	1498.3	–
m1 = 0.01518	–	–	0.9029
m1 = 0.017	997.58	1499	–
m1 = 0.01948	–	–	0.9059
m1 = 0.0196	997.66	1499.4	–
m1 = 0.0235	997.78	1499.9	–
m1 = 0.02476	–	–	0.9094
m1 = 0.0264	997.87	1500.3	–
m1 = 0.0311	–	–	0.914
m1 = 0.0369	998.19	1501.7	–
m1 = 0.03923	–	–	0.9201
m1 = 0.0428	998.37	1502.5	–
m1 = 0.0454	998.45	1502.9	–
m1 = 0.04705	–	–	0.9255
